“Also recorded” adds a separate entry of the source. Read-outs that look alike come from different tables or passages of the source.
Assays:
[1] = test system: nuclear Type II estrogen binding sites; test: Inhibition assay: [3H]estradiol binding to nuclear Type II sites (uterine nuclei from estrogen-implanted ovariectomized rats); parameters: species or system rat; conditions: for IC50: Table I, read-out: TYPE II INHIBITION: concentration (nM) times 10^-2 to inhibit nuclear Type II binding sites by 50%
Protocol: Tissue was dissected from host animals, weighed, rinsed in saline, and homogenized in 10 mM Tris-1.5 mM EDTA, by approximately four 30-sec bursts in a Sorval Omnimixer with intermittent cooling for about 5 min. This crude homogenate was transferred to a Kontes ground glass homogenizer and further homogenized with intermittent cooling until no tissue aggregates were visible. It was imperative that the homogenate be kept cold, about 4° C. through all homogenization steps. The final homogenate was centrifuged at 800×g for approximately 20 min to obtain the crude nuclear pellet, which was then washed by gentle resuspension in a Dounce homogenizer and then centrifuged at 800×g for approximately 7 min. The final washed nuclear pellet was resuspended in 10 mM Tris-1.5 mM EDTA in a concentration ranging from 5 to 50 mg of fresh tissue equivalents/ml. By the term "fresh tissue equivalent" is meant the amount of material which represents the initial concentration in the fresh uterine tissue.
To assess total and nonspecific binding, aliquots of the nuclear suspension were incubated at 37° C. for 30 min with various concentrations ranging from 2 to 40 nM of [^3 H]estradiol with and without a large molar excess of diethylstilbestrol. The diethylstibestrol concentration ranged from 0.6 to 12.0 μM. Following incubation, the nuclear pellets were resuspended in about 1 ml of 10 mM Tris-1.5 mM EDTA buffer and centrifuged at 800×g for about 7 min. The pellet was extracted with 1 ml of ethanol at about 30° C. for about 30 min, and counted in 4 ml of Liquifluor. Specific binding was determined by substraction of nonspecific binding; i.e., not competable by diethylstilbestrol from the total quantity of [^3 H]estradiol bound. Results were expressed as sites/cell, assuming 8 pg of DNA/cell nucleus and that each binding site binds one molecule of [^3 H]estradiol.
In order to assess the levels of this inhibitor activity in various tissue cytosols and LH-20 column chromatography fractions from these cytosols, the following inhibition assay was used. Uterine nuclei were prepared from estrogen-implanted, adult-ovariectomizedrats. The washed nuclear pellet was diluted to 10 mg of fresh uterine equivalents/ml. At this concentration the effects of the endogenous inhibitor were minimal, and nuclear Type II sites bound maximum quantities of [^3 H]estradiol. Aliquots of these nuclei and the inhibitor sample were incubated at about 4° C. for approximately 60 min in the presence of 40 nM of [^3 H]estradiol with and without 12 μM diethylstilbestrol. Under these conditions, nuclear Type II sites were quantitatively measured without interference from Type I sites. The nuclear pellets were resuspended in 1 ml of 10 mM Tris-1.5 mM EDTA and centrifuged, ethanol extracted, and counted. The results were expressed as the percentage of [^3 H]estradiol bound as compared to the buffer control, or as the percentage of inhibition where 100% bound was 0% inhibition and was equivalent to approximately 45,000 cpm.
Thus, more nuclear Type II sites are measured in dilute than in concentrated nuclei. […] The uterine nuclei were prepared as previously described in Markaverich, B. M. et al., J. Biol. Chem. 258:11663-11671 (1983), the disclosure of which is herein incorporated by reference. Briefly, uterine nuclei after preparation were diluted in 10 mM Tris, 1.5 mM EDTA buffer in final volumes equivalent to 10, 20 or 40 mg fresh uterine equivalents per ml, and assayed for estrogen binding sites by [^3 H]estradiol exchange at 37° C. for 30 minutes. Specific binding was determined by subtraction of non-specific binding, i.e., non-competable with 300-fold excess diethylstilbestrol, from the total quantity of [^3 H]estradiol bound. […] Briefly, acid-precipitated, boiled cytosol from rat uterus, mouse mammary tumor and normal mouse mammary gland was diluted as shown on FIG. 2 and evaluated for inhibitor activity. […]

[2] = test system: estradiol stimulation of uterine growth (rat uterus); test: Uterotropic assay: block of estradiol stimulation of uterine growth in immature female rats; type: in vivo; conditions: for GROWTH INHIBITION (%): 10 μg compound, block of estradiol stimulation in the rat uterotropic assay; for block of estradiol stimulation of uterine growth (in words): immature rat, FIGS. 14, 15
Protocol: The rat uterus is exquisitively sensitive to estrogen, and this hormone stimulates uterine cellular hypertrophy, hyperplasia and DNA synthesis within 24 hours following a single injection. Estradiol stimulation of nuclear Type II sites is a prerequisite for these responses. This assay includes injecting immature female rats with saline-ethanol vehicle, estradiol-17β and the test compound of interest. Control rats were injected only with saline-ethanol vehicle and estradiol-17β. The rats were sacrificed 24 hours later and the uterine wet and dry weights were determined. The wet and dry weight measurements are well defined biochemical end points of estrogen action and are a direct index of changes in cell proliferation and DNA synthesis.
estradiol stimulation in the rat uterotropic assay.

[3] = test system: cell growth and proliferation in normal and malignant cells; test: Cell growth / tumor proliferation inhibition (general statement); type: cell-based
esterase = test: Stability to esterase cleavage; type: in vitro ADME
[4] = test system: MCF-7 human breast cancer cells; test: MCF-7 cancer cell assay; type: cell-based; conditions: FIG. 12; 1-10 μg/ml, 6 days
Text: To assay for tumor growth sensitivity the MCF-7 human breast cancer cell line in tissue culture was used. One skilled in the art will recognize that this is an excellent model system to assess the effects of hormones and drugs on human cancer cell growth and proliferation. The MCF-7 cells have both Type I and nuclear Type II estrogen receptor sites and respond in a proliferative fashion to estrogenic hormones. Furthermore, they are inhibited by well-known anti-estrogens such as Tamoxifen. The MCF-7 cells were plated at 5×10^5 cells/dish in 30 mm petri dishes and grown in Dulbecco's Modified Eagles Medium containing about 10% charcoal stripped fetal bovine serum for approximately 48 hours. During this interval, the cells attached to the plastic dishes and then underwent exponential growth with a cell-doubling time of approximately 24 hours. The plated cells were allowed to attach for approximately 48 hours and the medium was replaced ("day zero"). The cells were allowed to grow exponentially for about 6 days. […] On day 6 the cells were harvested, counted on a hemocytometer and DNA content per dish was determined by the Burton assay (Burton, K., Biochem. J. 62:315-323, 1956). Results are expressed as cells/dish or DNA content (μg/dish) at 6 days following treatment. […]

[5] = test system: MCF-7 human breast cancer cells; conditions: general knowledge statement; cited from earlier work
[6] = test system: estradiol stimulation of uterine growth (rat uterus); conditions: background statement; cited from earlier work
malignant (tumor) cells = test: Metabolism / inactivation by malignant cells; type: in vitro ADME
[7] = listed as methyl p-hydroxyphenyllactate

CC(=O)CCc1ccc(O)cc1 [1-(4-hydroxyphenyl)-3-butanone]
binding to / inhibition of nuclear Type II sites (in words) [1]: bind to Type II sites; also recorded: binds to the nuclear Type II sites with a high affinity
IC50 [1]: 200 nM
GROWTH INHIBITION (%) [2]: 96%
block of estradiol stimulation of uterine growth (in words) [2]: antitumor proliferative activity in the uterotropic assay; also recorded: blocks estradiol stimulation of uterine growth when injected into immature rats
inhibition in culture and in vivo relative to MeHPLA (in words) ([3]; culture and in vivo): a better inhibitor in culture and in vivo
stability (in words) (esterase): not subject to the esterase cleavage; also recorded: more stable

CCC(=O)CCc1ccc(O)cc1 [1-(4-hydroxyphenyl)-3-pentanone]
binding to / inhibition of nuclear Type II sites (in words) [1]: bind to Type II sites
block of estradiol stimulation of uterine growth (in words) [2]: antitumor proliferative activity in the uterotropic assay

O=C(O)C(O)Cc1ccc(O)cc1 (centres unmarked) [3-(4-hydroxyphenyl)-2-hydroxypropionic acid, reference compound]
binding to / inhibition of nuclear Type II sites (in words) [1]: low binding affinity for nuclear Type II sites
IC50 [1]: 8000 nM
fold lower affinity for nuclear Type II sites than methyl p-hydroxyphenyllactate ([1]; vs MeHPLA): 20 fold
GROWTH INHIBITION (%) [2]: 0%
block of estradiol stimulation of uterine growth (in words) ([2]; listed as hydroxyphenyllactic acid): higher doses of hydroxyphenyllactic acid showed some partial antagonism; also recorded: but not hydroxyphenyllactic acid
cell growth inhibition / antitumor activity (in words) [3]: inhibits the cell growth much less effectively
inhibition of MCF-7 human breast cancer cells [4]: did not

CC/C(=C(\c1ccccc1)c1ccc(OCCN(C)C)cc1)c1ccccc1 [Tamoxifen]
inhibition of MCF-7 cells by known anti-estrogens [5]: inhibited

CCN(CC)CCOc1ccc(C(=C(Cl)c2ccccc2)c2ccccc2)cc1 [clomiphene]
inhibition of nuclear Type II sites associated with antagonism of uterotropic responses to estrogen [6]: associated with antagonism of uterotropic responses to estrogen

C[C@@H]1C[C@H]2[C@@H]3CCC4=CC(=O)C=C[C@]4(C)[C@@]3(F)[C@@H](O)C[C@]2(C)[C@@]1(O)C(=O)CO [dexamethasone]
inhibition of nuclear Type II sites associated with antagonism of uterotropic responses to estrogen [6]: associated with antagonism of uterotropic responses to estrogen

COC(=O)C=Cc1ccc(O)c(O)c1 [methyl 3-(3,4-dihydroxyphenyl)-2-propenoate]
IC50 [1]: 100 nM
GROWTH INHIBITION (%) [2]: 70%

COC(=O)C=Cc1ccc(O)c(OC)c1 [methyl 3-(4-hydroxy-3-methoxyphenyl)-2-propenoate]
IC50 [1]: 600 nM
GROWTH INHIBITION (%) [2]: 56%

COC(=O)C(O)Cc1ccc(O)cc1 (centres unmarked) [methyl 3-(4-hydroxyphenyl)-2-hydroxypropionate]
metabolism / inactivation by malignant cells (in words) (malignant (tumor) cells; listed as MeHPLA): malignant cells metabolize MeHPLA
metabolism / inactivation by malignant cells (in words) (malignant (tumor) cells; [7]): tumor cells have the ability to inactivate methyl p-hydroxyphenyllactate
IC50 [1]: 80 nM
fold more effective in inhibiting [3H]estradiol binding to nuclear Type II sites than the free acid (HPLA) ([1]; competition analysis, FIGS. 8 and 9, vs HPLA): approximately 20 fold
GROWTH INHIBITION (%) [2]: 90%
block of estradiol stimulation of uterine growth (in words) ([2]; listed as MeHPLA): block estrogen stimulation of normal cell growth such as that in the rat uterus
block of estradiol stimulation of uterine growth (in words) [2, 7]: block estradiol stimulation of uterine growth in the immature rat
cell growth inhibition / antitumor activity (in words) ([3]; listed as MeHPLA): cell growth and proliferation are inhibited; also recorded: cell growth and proliferation of non-malignant tissues are slowed down or stopped
inhibition of MCF-7 human breast cancer cells [4]: inhibited MCF-7 breast cancer cells in a similar dose-dependent fashion

COC(=O)COc1ccc(O)cc1 [methyl (4-hydroxyphenoxy) acetate, methyl (4-hydroxyphenoxy)acetate]
IC50 [1]: 80 nM
GROWTH INHIBITION (%) [2]: 70%

COc1ccc2c(c1)CCC(c1ccccc1)=C2c1ccc(OCCN2CCCC2)cc1 [nafoxidine]
inhibition of nuclear Type II sites associated with antagonism of uterotropic responses to estrogen [6]: associated with antagonism of uterotropic responses to estrogen

CC(=O)[C@H]1CC[C@H]2[C@@H]3CCC4=CC(=O)CC[C@]4(C)[C@H]3CC[C@]12C [progesterone]
inhibition of nuclear Type II sites associated with antagonism of uterotropic responses to estrogen [6]: associated with antagonism of uterotropic responses to estrogen

Source: patent publication US5216024A, “Cell growth inhibitors and methods of treating cancer and cell proliferative diseases” (Baylor College of Medicine, priority 1988, dated 1993)
